Laboratory results from EPA's ToxRefDB 2.

Assays:
rat [1] = conditions: Multigenerational reproductive toxicity study, sprague dawley, Oral, Feed, dose end: 2 generation
rat [2] = conditions: Prenatal developmental toxicity study, sprague dawley, Oral, Gavage/Intubation, dose end: 15 GD, group: maternal
dog [3] = conditions: Subchronic oral toxicity in nonrodent, beagle, Capsule, dose end: 13 week, group: systemic
dog [4] = conditions: Chronic toxicity, beagle, Oral, Capsule, dose end: 53 week, group: systemic
rat [5] = conditions: Subchronic oral toxicity in rodents, fischer, Feed, dose end: 3 month, group: systemic, systemic / organ weight / liver / absolute + systemic / organ weight / liver / relative to body weight + systemic / pathology microscopic / …
mouse [6] = conditions: Carcinogenicity, b6c3f1, Oral, Feed, dose end: 2 year, group: systemic
mouse [7] = conditions: Carcinogenicity, cd1, Oral, Gavage/Intubation, dose end: 16 PND, group: systemic
mouse [8] = conditions: Carcinogenicity, other, Oral, Gavage/Intubation, dose end: 6 month, group: systemic
mouse [9] = conditions: Carcinogenicity; other; Oral; Gavage/Intubation; dose end: 6 month; group: systemic; systemic / in life observation / clinical signs / abnormal gait + systemic / in life observation / clinical signs / ataxia + systemic / in …
mouse [10] = conditions: Carcinogenicity, other, Oral, Gavage/Intubation, dose end: 6 month, group: systemic; remark: listed apart in the source
rat [11] = conditions: Subchronic oral toxicity in rodents, sprague dawley, Feed, dose end: 90 day, group: systemic, systemic / in life observation / clinical signs / altered breathing rate + systemic / in life observation / food consumption / food …
dog [12] = conditions: Subchronic oral toxicity in nonrodent, beagle, Feed, dose end: 90 day, group: systemic, systemic / hematology / hematocrit (hct) / hematocrit (hct) + systemic / hematology / hemoglobin (hgb) / hemoglobin (hgb) + systemic / …
rat [13] = conditions: Carcinogenicity, fischer, Inhalation, Whole-Body, dose end: 105 week, group: systemic
rat [14] = conditions: Subchronic inhalation toxicity, fischer, Whole-Body, dose end: 14 week, group: systemic
mouse [15] = conditions: Carcinogenicity, b6c3f1, Inhalation, Whole-Body, dose end: 105 week, group: systemic
mouse [16] = conditions: Subchronic inhalation toxicity, b6c3f1, Whole-Body, dose end: 14 week, group: systemic
rat [17] = conditions: Combined chronic toxicity/carcinogenicity, wistar, Oral, Feed, dose end: 24 month, group: systemic
[18] = group: offspring, systemic / in life observation / body weight / offspring (pup) weight
[19] = group: offspring, systemic / in life observation / body weight / offspring (pup) weight + developmental / offspring survival late / viability index / …
[20] = group: parental, systemic / organ weight / liver / absolute + systemic / organ weight / liver / relative to body weight + systemic / pathology microscopic / …
[21] = group: reproductive, reproductive / offspring survival early / litter size / litter size
[22] = systemic / in life observation / body weight / body weight + systemic / in life observation / body weight / body weight gain + systemic / in…
[23] = systemic / pathology microscopic / spleen / pigmentation
[24] = systemic / pathology microscopic / spleen / pigmentation + systemic / in life observation / clinical signs / emesis + systemic / pathology …
[25] = systemic / pathology microscopic / liver / pigmentation + systemic / clinical chemistry / alanine aminotransferase (alt/sgpt) / alanine …
[26] = systemic / pathology microscopic / liver / hyperplasia + systemic / organ weight / liver / absolute + systemic / organ weight / liver / …
[27] = systemic / in life observation / body weight / body weight gain + systemic / in life observation / clinical signs / dehydration + systemic…
[28] = systemic / in life observation / clinical signs / body temperature + systemic / in life observation / clinical signs / dehydration + …
[29] = systemic / pathology microscopic / liver / hypertrophy
[30] = systemic / clinical chemistry / alanine aminotransferase (alt/sgpt) / alanine aminotransferase (alt/sgpt) + systemic / clinical chemistry / …
[31] = systemic / clinical chemistry / cholesterol / cholesterol + systemic / clinical chemistry / cholesterol / cholesterol, direct ldl + systemic…
[32] = systemic / pathology microscopic / kidney / hyperplasia + systemic / pathology microscopic / nose / atrophy + systemic / pathology …
[33] = systemic / pathology microscopic / nose / atrophy + systemic / pathology microscopic / nose / hyperplasia + systemic / pathology microscopic…
[34] = systemic / in life observation / body weight / body weight + systemic / in life observation / body weight / body weight gain + systemic / …
[35] = systemic / pathology microscopic / nose / metaplasia
[36] = systemic / in life observation / body weight / body weight + systemic / pathology microscopic / eye / degeneration + systemic / pathology …
[37] = systemic / in life observation / body weight / body weight + systemic / pathology microscopic / nose / degeneration + systemic / pathology …
[38] = systemic / organ weight / heart / absolute + systemic / pathology microscopic / nose / degeneration + systemic / pathology microscopic / …
[39] = systemic / pathology microscopic / nose / hyaline droplet + systemic / pathology microscopic / nose / degeneration
[40] = systemic / organ weight / heart / absolute

CCCCN(CC)c1c([N+](=O)[O-])cc(C(F)(F)F)cc1[N+](=O)[O-] [Benfluralin]
LEL (rat [1]; [18]): 74.4 mg/kg/day
LOAEL (rat [1]; [18]): 74.4 mg/kg/day
NEL (rat [1]; [19]): 7.3 mg/kg/day
NOAEL (rat [1]; [19]): 7.3 mg/kg/day
LEL (rat [1]; [20]): 68.1 mg/kg/day
LOAEL (rat [1]; [20]): 68.1 mg/kg/day
NEL (rat [1]; [20]): 7.2 mg/kg/day
NOAEL (rat [1]; [20]): 7.2 mg/kg/day
LEL (rat [1]; [21]): 401 mg/kg/day
LOAEL (rat [1]; [21]): 401 mg/kg/day
NEL (rat [1]; [21]): 74.4 mg/kg/day
NOAEL (rat [1]; [21]): 74.4 mg/kg/day
LOAEL (rat [2]; systemic / in life observation / body weight / body weight + systemic / in life observation / body weight / body weight gain): 1000 mg/kg/day
NEL (rat [2]; [22]): 225 mg/kg/day
NOAEL (rat [2]; [22]): 475 mg/kg/day
LEL (rat [2]; systemic / in life observation / body weight / body weight + systemic / in life observation / food consumption / food consumption): 475 mg/kg/day
LEL (dog [3]; [23]): 25 mg/kg/day
LOAEL (dog [3]; [23]): 25 mg/kg/day
NEL (dog [3]; [24]): 5 mg/kg/day
NOAEL (dog [3]; [24]): 5 mg/kg/day
LOAEL (dog [4]; systemic / pathology microscopic / liver / pigmentation): 25 mg/kg/day
LEL (dog [4]; [25]): 25 mg/kg/day
NEL (dog [4]; [25]): 5 mg/kg/day
NOAEL (dog [4]; [25]): 5 mg/kg/day
LEL (rat [5]): 16.8 mg/kg/day
LOAEL (rat [5]): > 522 mg/kg/day
NEL (rat [5]): 3.23 mg/kg/day
NOAEL (rat [5]): ≥ 522 mg/kg/day
LOAEL (mouse [6]; systemic / pathology microscopic / liver / hyperplasia): 185 mg/kg/day
LEL (mouse [6]; [26]): 185 mg/kg/day
NEL (mouse [6]; [26]): 36.4 mg/kg/day
NOAEL (mouse [6]; [26]): 36.4 mg/kg/day

CCOC(=O)C(C)(C)Oc1ccc(Cl)cc1 [Clofibrate]
LOAEL (mouse [7]; [27]): > 500 mg/kg/day
NEL (mouse [7]; [27]): 100 mg/kg/day
NOAEL (mouse [7]; [27]): ≥ 500 mg/kg/day
LEL (mouse [7]; systemic / in life observation / clinical signs / palpable mass): 250 mg/kg/day
LOAEL (mouse [8]; [28]): > 650 mg/kg/day
NOAEL (mouse [8]; [28]): ≥ 650 mg/kg/day
LEL (mouse [8]; [29]): 50 mg/kg/day
NEL (mouse [8]; [29]): < 50 mg/kg/day
LEL (mouse [9]): 200 mg/kg/day
LOAEL (mouse [9]): > 500 mg/kg/day
NEL (mouse [9]): 50 mg/kg/day
NOAEL (mouse [9]): ≥ 500 mg/kg/day
LOAEL (mouse [10]; [30]): > 250 mg/kg/day
NOAEL (mouse [10]; [30]): ≥ 250 mg/kg/day
LEL (mouse [10]; [31]): 50 mg/kg/day
NEL (mouse [10]; [31]): < 50 mg/kg/day

O.O.O.O.O.O.O.O.O.O.[Na+].[Na+].[O-]B1OB2OB([O-])OB(O1)O2 [Borax]
LEL (rat [11]): 770 mg/kg/day
LOAEL (rat [11]): 770 mg/kg/day
NEL (rat [11]): 232 mg/kg/day
NOAEL (rat [11]): 232 mg/kg/day
LEL (dog [12]): 192 mg/kg/day
LOAEL (dog [12]): 192 mg/kg/day
NEL (dog [12]): 22 mg/kg/day
NOAEL (dog [12]): 22 mg/kg/day

OCc1ccco1 [Furfuryl alcohol]
LOAEL (rat [13]; [32]): > 32 ppm
NOAEL (rat [13]; [32]): ≥ 32 ppm
LEL (rat [13]; [33]): 2 ppm
NEL (rat [13]; [33]): < 2 ppm
LOAEL (rat [14]; [34]): > 32 ppm
NOAEL (rat [14]; [34]): ≥ 32 ppm
LEL (rat [14]; [35]): 2 ppm
NEL (rat [14]; [35]): < 2 ppm
LOAEL (mouse [15]; [36]): > 32 ppm
NOAEL (mouse [15]; [36]): ≥ 32 ppm
LEL (mouse [15]; [37]): 2 ppm
NEL (mouse [15]; [37]): < 2 ppm
LOAEL (mouse [16]; [38]): > 32 ppm
NOAEL (mouse [16]; [38]): ≥ 32 ppm
LEL (mouse [16]; [39]): 2 ppm
NEL (mouse [16]; [39]): < 2 ppm

NCCO.O=C(Nc1ccc([N+](=O)[O-])cc1Cl)c1cc(Cl)ccc1O [Clonitralid]
LOAEL (rat [17]; systemic / in life observation / body weight / body weight gain): 410 mg/kg/day
NOAEL (rat [17]; systemic / in life observation / body weight / body weight gain + systemic / clinical chemistry / alanine aminotransferase (alt/sgpt) / …): 100 mg/kg/day
LEL (rat [17]; [40]): 20 mg/kg/day
NEL (rat [17]; [40]): < 20 mg/kg/day
